# In patent US10221163B2 (priority 2015, dated 2019):
# Read-outs that look alike come from different tables or passages of the source.
# Tests used:
# IMP-1 = IMP-1 (Serratia marcescens, UniProt P52699); assay: biochemical; assay type: biochemical; details: fluorescence assay, CCF2-FA substrate, 2 pM enzyme, 2 hours at 25° C.; read-out: IMP-1 IC50
# How it was run: (§1)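 Two-hour, 25° C incubation of enzyme with inhibitor and CCF2-FA (7-hydroxycoumarin–cephalosporin–fluorescein). Fluorescence read-out; IC50 via 4-parameter fit.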
# NDM-1 = NDM-1 (Klebsiella pneumoniae, UniProt C7C422); assay: biochemical; assay type: biochemical; details: fluorescence assay, CCF2-FA substrate, 1 pM enzyme, 2 hours at 25° C.; read-out: NDM-1 IC50
# How it was run: as §1
# [1] = system: Pseudomonas aeruginosa efflux− (MB9799), IMP-1; assay type: cell-based; details: efflux− MB9799; imipenem at 2 μg/mL; in the presence of a class A, C, D serine β-lactamase inhibitor closely related to relebactam
# How it was run: (§2)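 PAO1 pair, broth microdilution; fixed β-lactam (imipenem/ceftazidime) at ~CLSI breakpoint + fixed class A/C BLI for AmpC; serial MBLi titration; endpoint = MBLi conc. restoring susceptibility; MB9798:MB9799 ratio = efflux liability.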
# [2] = system: Pseudomonas aeruginosa MB9798 vs MB9799; details: fold difference between efflux+ (MB9798) and efflux− (MB9799) strains; imipenem at 2 μg/mL
# How it was run: as §2
# [3] = system: Pseudomonas aeruginosa efflux+ (MB9798), IMP-1; assay type: cell-based; design: Concentration of metallo-β-lactamase inhibitor which restores susceptibility of efflux + (MB9798) strain to imipenem: unit not given here; details: efflux+ MB9798; imipenem at 2 μg/mL; in the presence of a class A, C, D serine β-lactamase inhibitor closely related to relebactam
# How it was run: as §2
# [4] = system: Klebsiella pneumoniae expressing VIM-1 (IHMA599644); assay type: cell-based; details: VIM-1 strain IHMA599644, with imipenem 1 μg/ml, 95% inhibition of growth
# How it was run: (§3)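 Growth by absorbance after 22–24 h at 35°C defined the read-out, with imipenem fixed at 1 μg/ml alongside compound. Inocula came from overnight blood-agar colonies at 35°C, resuspended in saline and diluted 1:100 in 1.1×CAMHB.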
# [5] = system: Serratia marcescens expressing IMP-1 (CL5741); assay type: cell-based; details: IMP-1 strain CL5741, with imipenem 1 μg/ml, 95% inhibition of growth
# How it was run: as §3
# [6] = system: Escherichia coli expressing NDM-1 (CLB30005, CLB30016); assay type: cell-based; details: NDM-1 strain, with imipenem 1 μg/ml, 95% inhibition of growth
# How it was run: as §3
# VIM-1 = VIM-1 (Pseudomonas aeruginosa (strain ATCC 15692 / DSM 22644 / CIP 104116 / JCM 14847 / LMG 12228 / 1C / PRS 101 / PAO1), UniProt A0A0F7KYQ8); assay: biochemical; details: CCF2-FA substrate, 30 pM enzyme, 2 hours at 25° C.
# How it was run: as §1
# [7] = fluorescence assay, read-out: VIM-1 IC50
# Chain of NDM-1 (C7C422 whole entry, looked up, species assumed): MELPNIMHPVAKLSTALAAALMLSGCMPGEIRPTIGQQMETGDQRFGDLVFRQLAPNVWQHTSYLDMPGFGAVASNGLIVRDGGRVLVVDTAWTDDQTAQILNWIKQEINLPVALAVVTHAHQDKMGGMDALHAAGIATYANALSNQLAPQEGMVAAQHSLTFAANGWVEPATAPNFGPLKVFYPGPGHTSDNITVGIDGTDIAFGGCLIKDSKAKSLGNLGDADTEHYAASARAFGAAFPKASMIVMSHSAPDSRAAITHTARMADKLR
# Chain of IMP-1 (P52699 whole entry, looked up, species assumed): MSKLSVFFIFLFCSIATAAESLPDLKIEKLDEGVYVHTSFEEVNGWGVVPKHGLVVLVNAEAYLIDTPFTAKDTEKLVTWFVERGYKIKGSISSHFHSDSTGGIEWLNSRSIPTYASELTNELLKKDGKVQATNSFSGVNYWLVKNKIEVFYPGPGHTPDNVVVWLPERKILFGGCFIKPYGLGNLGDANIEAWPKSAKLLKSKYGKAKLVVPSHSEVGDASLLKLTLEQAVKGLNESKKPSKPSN
Compound,IC50 (IMP-1) [nM],IC50 (NDM-1) [nM],Concentration of metallo-β-lactamase inhibitor which restores susceptibility of efflux − (MB9799) strain to imipenem [1],Efflux ratio [2],Concentration of metallo-β-lactamase inhibitor which restores susceptibility of efflux + (MB9798) strain to imipenem [3],Klebsiella pneumoniae MITC95 [4] [µM],Serratia marcescens MITC95 [5] [µM],Escherichia coli MITC95 [6] [µM],"IC50 (VIM-1; VIM-1 IC50, fluorescence assay) [nM]",IC50 (VIM-1; [7]) [nM],"IC50 (VIM-1; read-out: VIM-1 IC50, fluorescence assay) [nM]"
"NC[C@@H](O)CNS(=O)(=O)c1ccc(-c2cnc(N)c(F)c2)c(-c2nn[nH]n2)c1S(N)(=O)=O [Example 478, (R)-N1-(3-amino-2-hydroxypropyl)-4-(6-amino-5-fluoropyridin-3-yl)-3-(2H-tetrazol-5-yl)benzene-1,2-disulfonamide]",0.677,0.159,0.7813,1.00,0.7813,3.125,1.563,1.563,0.0914,–,–
"C[C@H](N)CNS(=O)(=O)c1ccc(-c2ccc(N)nc2)c(-c2nn[nH]n2)c1S(N)(=O)=O [Example 479, (S)—N1-(2-aminopropyl)-4-(6-aminopyridin-3-yl)-3-(2H-tetrazol-5-yl) benzene-1,2-disulfonamide]",0.664,0.224,0.7813,1.00,0.7813,1.563,0.7813,0.1953,–,0.299,–
"C[C@@H](N)CNS(=O)(=O)c1ccc(-c2ccc(N)nc2)c(-c2nn[nH]n2)c1S(N)(=O)=O [Example 480, (R)—N1-(2-aminopropyl)-4-(6-aminopyridin-3-yl)-3-(2H-tetrazol-5-yl) benzene-1,2-disulfonamide]",0.32,0.227,0.7813,1.00,0.7813,1.563,0.3906,0.1953,–,0.249,–
"NS(=O)(=O)c1c(S(=O)(=O)NC[C@H]2CNCCN2)ccc(-c2cccc3[nH]cnc23)c1-c1nn[nH]n1 [Example 481, (R)-4-(1H-benzo[d]imidazol-4-yl)-N1-(piperazin-2-ylmethyl)-3-(1H-tetrazol-5-yl)benzene-1,2-disulfonamide]",0.251,0.0455,1.563,1.00,1.563,3.125,1.563,3.125,–,0.119,–
"NCCNCCNS(=O)(=O)c1ccc(-c2ccc(N)nc2)c(-c2nn[nH]n2)c1S(N)(=O)=O [Example 482, N1-(2-(-2-amineoethylamino)ethyl)-4-(6-aminopyridin-3-yl)-3-(2H-tetrazol-5-yl)benzene-1,2-disulfonamide]",1.14,0.537,0.7813,2.00,1.563,1.563,0.7813,0.1953,0.333,–,–
"Nc1ccc(-c2ccc(S(=O)(=O)NC3CC(N)C3)c(S(N)(=O)=O)c2-c2nn[nH]n2)cn1 [Example 483, N1-((1R,3R)-3-aminocyclobutyl)-4-(6-aminopyridin-3-yl)-3-(2H-tetrazol-5-yl)benzene-1,2-disulfonamide]",0.33,0.0927,0.7813,1.00,0.7813,1.563,0.7813,1.758,–,–,0.115
